Values belong to the compound of their own block, whether it stands above or below them. Numbered stars: 1 amine (or outer) side, 2 acyl side, 3 side chain; on linkers, the order of the positions; unused ones are H or OH. Square brackets hold non-standard residues; d marks the D form. Residues, ends and D or L forms follow the SMILES beside them. Peptide text beside a SMILES is read from it. ξ: configuration not given here. *: point of attachment. X1 = CC(=O)C(=O)CCc1ccc(CC(N[*:1])C(=O)[*:2])cc1; pY = N[C@@H](Cc1ccc(OP(=O)(O)O)cc1)C(=O)O; Ile(3ξ) = CCC(C)[C@H](N)C(=O)O
Legend:
EGFR [1] = biological target: EGFR (UniProt P00533)
EGFR, sequence (P00533 whole entry, looked up): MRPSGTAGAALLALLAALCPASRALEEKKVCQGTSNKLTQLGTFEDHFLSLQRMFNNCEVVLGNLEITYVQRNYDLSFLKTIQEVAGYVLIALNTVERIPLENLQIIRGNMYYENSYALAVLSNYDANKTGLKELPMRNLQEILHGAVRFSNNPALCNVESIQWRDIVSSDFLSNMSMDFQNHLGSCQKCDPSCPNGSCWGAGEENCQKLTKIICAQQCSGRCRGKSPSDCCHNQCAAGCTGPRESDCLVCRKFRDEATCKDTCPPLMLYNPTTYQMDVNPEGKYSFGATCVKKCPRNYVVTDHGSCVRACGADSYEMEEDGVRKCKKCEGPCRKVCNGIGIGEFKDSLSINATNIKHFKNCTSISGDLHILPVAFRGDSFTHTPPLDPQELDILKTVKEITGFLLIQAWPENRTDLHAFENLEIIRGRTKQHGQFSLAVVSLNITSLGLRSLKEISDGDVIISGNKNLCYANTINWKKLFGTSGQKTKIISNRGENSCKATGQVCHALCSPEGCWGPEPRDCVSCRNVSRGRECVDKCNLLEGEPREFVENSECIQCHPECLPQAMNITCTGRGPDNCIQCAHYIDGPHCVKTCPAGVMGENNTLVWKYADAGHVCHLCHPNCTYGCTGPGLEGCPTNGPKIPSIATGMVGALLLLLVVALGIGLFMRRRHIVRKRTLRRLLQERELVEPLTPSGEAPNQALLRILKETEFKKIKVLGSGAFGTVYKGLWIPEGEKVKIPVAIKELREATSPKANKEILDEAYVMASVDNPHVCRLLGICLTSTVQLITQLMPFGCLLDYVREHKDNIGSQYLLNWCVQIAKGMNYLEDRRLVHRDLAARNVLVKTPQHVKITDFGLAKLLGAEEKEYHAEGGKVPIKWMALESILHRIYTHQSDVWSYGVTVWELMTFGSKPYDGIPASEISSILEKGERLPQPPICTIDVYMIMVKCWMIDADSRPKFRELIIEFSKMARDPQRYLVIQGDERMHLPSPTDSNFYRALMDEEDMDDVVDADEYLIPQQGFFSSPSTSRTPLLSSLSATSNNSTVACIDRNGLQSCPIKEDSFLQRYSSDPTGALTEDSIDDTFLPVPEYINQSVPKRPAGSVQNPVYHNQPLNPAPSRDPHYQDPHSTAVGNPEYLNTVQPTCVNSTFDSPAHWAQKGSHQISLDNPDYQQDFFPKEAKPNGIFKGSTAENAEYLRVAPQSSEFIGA

[2] = biological target: PIK3CB;PIK3CG;PIK3CD;PIK3CA (human) (UniProt P48736); test: Assessment of PIK3CA/PIK3CB/PIK3CD/PIK3CG Kinase Activity
MAPK14 (human) [3] = biological target: MAPK14 (human) (UniProt Q16539); test: Cell-Based Assay; conditions: a375
MAPK14 (human), sequence (Q16539 whole entry, looked up): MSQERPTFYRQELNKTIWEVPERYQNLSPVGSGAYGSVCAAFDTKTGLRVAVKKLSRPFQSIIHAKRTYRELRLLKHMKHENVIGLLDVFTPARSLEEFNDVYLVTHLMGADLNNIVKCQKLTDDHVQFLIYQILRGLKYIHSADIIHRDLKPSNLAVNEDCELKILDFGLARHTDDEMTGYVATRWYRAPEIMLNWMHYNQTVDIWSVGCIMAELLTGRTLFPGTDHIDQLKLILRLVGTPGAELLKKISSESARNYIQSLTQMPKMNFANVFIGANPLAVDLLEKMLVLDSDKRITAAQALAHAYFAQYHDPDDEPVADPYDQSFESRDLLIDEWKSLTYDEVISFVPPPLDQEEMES

EGFR (human) [4] = biological target: EGFR (human) (UniProt P00533); conditions: hn5
EGFR (human), sequence (P00533 whole entry, looked up): as the sequence (P00533 whole entry, looked up) above

EGFR [5] = biological target: EGFR (UniProt P00533); remark: listed apart in the source
MAPK14 [6] = biological target: MAPK14 (UniProt Q16539); test: p38-alpha Kinase Inhibition; conditions: concentration not given here
MAPK14, sequence (Q16539 whole entry, looked up): as the sequence (Q16539 whole entry, looked up) above

CDK2 = CDK2 (UniProt P24941); test: Enzyme Assay; conditions: concentration not given here
ROCK2 = ROCK2 (UniProt O75116); test: ROCK2 Kinase Inhibition; conditions: concentration not given here
EGFR (human) [7] = biological target: EGFR (human) (UniProt P00533)
EGFR (human) [8] = biological target: EGFR (human) (UniProt P00533); remark: listed apart in the source
MAPK14 (human) [9] = biological target: MAPK14 (human) (UniProt Q16539); test: TNFalpha Inhibition; conditions: pbmc
MAPK14 [10] = biological target: MAPK14 (UniProt Q16539); test: CSBP Inhibition
EGFR [11] = biological target: EGFR (UniProt P00533); remark: listed apart in the source
MAPK14 [12] = biological target: MAPK14 (UniProt Q16539); test: Cascade Assay for Inhibitors of the MAP Kinase Pathway
MAPK14 (Drosophila) = test: p38 Kinase Inhibition; conditions: sf9
EGFR (human) [13] = biological target: EGFR (human) (UniProt P00533); conditions: a549
EGFR (human) [14] = biological target: EGFR (human) (UniProt P00533); conditions: a431
PIK3CA (human) [15] = biological target: PIK3CA (human) (UniProt P42336); test: Assesment of Cell Proliferation of IGROV-1 Cells Using SRB Assay
PIK3CA (human), sequence (P42336 whole entry, looked up): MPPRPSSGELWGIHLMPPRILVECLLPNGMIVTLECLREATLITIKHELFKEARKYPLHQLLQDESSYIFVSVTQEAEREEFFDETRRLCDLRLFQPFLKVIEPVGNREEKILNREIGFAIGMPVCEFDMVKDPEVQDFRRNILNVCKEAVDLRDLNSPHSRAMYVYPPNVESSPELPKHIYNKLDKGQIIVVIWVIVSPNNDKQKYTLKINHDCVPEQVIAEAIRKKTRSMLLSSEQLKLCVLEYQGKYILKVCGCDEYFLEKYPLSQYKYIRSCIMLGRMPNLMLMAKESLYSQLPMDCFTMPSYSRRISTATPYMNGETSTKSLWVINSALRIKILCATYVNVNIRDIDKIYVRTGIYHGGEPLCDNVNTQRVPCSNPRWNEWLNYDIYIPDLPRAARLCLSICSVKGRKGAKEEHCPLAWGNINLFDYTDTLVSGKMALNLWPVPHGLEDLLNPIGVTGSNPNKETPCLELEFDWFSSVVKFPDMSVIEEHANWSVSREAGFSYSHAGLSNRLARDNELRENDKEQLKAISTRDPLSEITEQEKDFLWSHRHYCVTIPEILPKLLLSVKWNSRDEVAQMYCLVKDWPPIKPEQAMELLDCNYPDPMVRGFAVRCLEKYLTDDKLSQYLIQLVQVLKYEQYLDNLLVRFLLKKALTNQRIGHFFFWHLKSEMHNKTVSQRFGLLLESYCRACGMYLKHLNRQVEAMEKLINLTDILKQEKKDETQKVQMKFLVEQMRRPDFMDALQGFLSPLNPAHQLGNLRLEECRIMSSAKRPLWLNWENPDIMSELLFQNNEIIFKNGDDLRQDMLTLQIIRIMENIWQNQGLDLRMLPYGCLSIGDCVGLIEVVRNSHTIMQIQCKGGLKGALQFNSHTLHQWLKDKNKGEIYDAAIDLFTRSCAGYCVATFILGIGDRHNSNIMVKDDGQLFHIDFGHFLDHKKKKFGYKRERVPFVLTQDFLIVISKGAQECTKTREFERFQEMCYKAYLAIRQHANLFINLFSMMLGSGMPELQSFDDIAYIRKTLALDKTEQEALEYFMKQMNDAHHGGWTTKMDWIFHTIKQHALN

PIK3CA (human) [16] = biological target: PIK3CA (human) (UniProt P42336); test: Inhibition of PIK3CA Kinase Activity
PIK3CA (human) [17] = biological target: PIK3CA (human) (UniProt P42336); test: Assessment of PIK3CA Kinase Activity in NZOV9 Cells
PIK3CA (human) [18] = biological target: PIK3CA (human) (UniProt P42336); test: Assessment of PIK3CA Kinase Activity in NZB5 Cells
EGFR (murine) = EGFR (murine) (UniProt P00533); conditions: nih3t3/c7
EGFR (murine), sequence (P00533 whole entry, looked up): as the sequence (P00533 whole entry, looked up) above

EGFR (human) [19] = biological target: EGFR (human) (UniProt P00533); remark: listed apart in the source
EGFR (human) [20] = biological target: EGFR (human) (UniProt P00533); conditions: a431; remark: listed apart in the source
EGFR (human) [21] = biological target: EGFR (human) (UniProt P00533); conditions: a431; remark: listed apart in the source
MAPK14 (human) [22] = biological target: MAPK14 (human) (UniProt Q16539); test: p38-mediated TNF-alpha Inhibition (LPS-Stimulated PBMCs); conditions: pbmc
EGFR (human) [23] = biological target: EGFR (human) (UniProt P00533); conditions: a431; remark: listed apart in the source

IC50 (EGFR [1]): 900 nM
SMILES: O=[N+]([O-])c1ccc2ncnc(Nc3cccc(Br)c3)c2c1

IC50 [2]: 1 to 100 nM
SMILES: COc1cnc2[nH]c3cnc(-c4cccnc4)cc3c2c1-c1ccc(NS(C)(=O)=O)cc1

IC50 (MAPK14 (human) [3]): > 10000 nM
SMILES: O=C1Nc2ccc(I)cc2/C1=C/c1cc(Br)c(O)c(Br)c1

IC50 [2]: 100 to 1000 nM
SMILES: CS(=O)(=O)Nc1ccc(-c2c(F)cnc3[nH]c4cnc(-c5cccnc5)cc4c23)cc1

IC50 (EGFR (human) [4]): 300000 nM
SMILES: Oc1ccc(-c2nc3c(O)cc(O)cc3s2)cc1

IC50 (MAPK14 (human) [3]): > 10000 nM
SMILES: CN(C)CCOc1ccc(-c2nc(-c3ccc4c(c3)CC/C4=N\O)c(-c3ccncc3)[nH]2)cc1

inhibition (EGFR [5]): 0
activity (MAPK14 [6]): 99%
activity (CDK2): 42%
activity (ROCK2): 89%
SMILES: CN(C)CCCn1cc(C2=C(c3c[nH]c4ccccc34)C(=O)NC2=O)c2ccccc21

IC50 [2]: 100 to 1000 nM
SMILES: Oc1cccc(-c2c(F)cnc3[nH]c4cnc(-c5cccnc5)cc4c23)c1

IC50 (EGFR [1]): 577 nM
SMILES: FC(F)(F)c1cccc(Nc2ncnc3ccccc23)c1

IC50 (EGFR (human) [7]): ≤ 100 nM
SMILES: C#Cc1cccc(Nc2ncnc3cc(OC)c(OCCCCC(=O)O)cc23)c1

IC50 (EGFR (human) [8]): 98 nM
SMILES: Cc1ncnc(Nc2ccc(OCc3cccc(F)c3)c(Cl)c2)c1-c1ccc(CNC2CC2)cc1

IC50 (MAPK14 (human) [9]): 7000 nM
SMILES: Cc1ccc(NC(=O)c2ccnc(N3CCOCC3)c2)cc1-n1cnc2c(N(C)CCCN(C)C)cccc2c1=O

IC50 (MAPK14 [10]): > 50000 nM
SMILES: C[S+]([O-])c1ccc(-c2ncn(C3CCN(CCC(=O)O)CC3)c2-c2ccnc([S+](C)[O-])n2)cc1 (stereo unspecified)

SMILES: CC(=O)OCCCCc1nc(-c2ccc(F)cc2)c(-c2ccncc2)n1COCC[Si](C)(C)C
inhibition (MAPK14 [10]; concentration not given here): 74%

IC50 (EGFR [11]): ≤ 500 nM
SMILES: CCC(C)[C@H](NC(=O)[C@H](CCC(=O)O)NC(=O)[C@H](CCC(=O)O)NC(=O)[C@H](Cc1ccc(OP(=O)(O)O)cc1)NC(C)=O)C(=O)N[C@@H](CCC(=O)O)C(=O)O (stereo partly specified) (Ac-[pY]EE[Ile(3ξ)]E-OH)

IC50 (MAPK14 [12]): 3000 nM
SMILES: COc1ccc(CN(Cc2ccc(OC)cc2)S(=O)(=O)c2cc(C(=O)O)c(Nc3ccc(I)cc3Cl)c(F)c2F)cc1

IC50 (EGFR [11]): ≤ 260000 nM
SMILES: CCC(C)[C@H](NC(=O)[C@H](CCC(=O)O)NC(=O)[C@H](CCC(=O)O)NC(=O)C(Cc1ccc(CCC(=O)C(C)=O)cc1)NC(C)=O)C(=O)N[C@@H](CCC(=O)O)C(=O)O (stereo partly specified) (Ac-[X1]EE[Ile(3ξ)]E-OH)

IC50 (MAPK14 [10]): < 50000 nM
SMILES: CSc1ccc(-c2ncn(C3CCN(CCC(=O)O)CC3)c2-c2ccnc(SC)n2)cc1

IC50 (MAPK14 (Drosophila)): 27 nM
SMILES: Cc1cc(F)ccc1-c1nc(N(C(N)=O)c2c(F)cccc2F)ccc1CO

IC50 (EGFR (human) [13]): > 100000 nM
SMILES: COc1cc(O)c2c(=O)n(-c3cccc(C(=O)N4CCCCC4)c3)ccc2c1NC(=O)Nc1ccc(C(=O)N2CCN(C)CC2)cc1

IC50 (EGFR (human) [14]): > 50000 nM
SMILES: CCOc1ccc(-c2cc(C(F)(F)F)c(C#N)c(SCC(=O)NCC(=O)O)n2)cc1

IC50 (PIK3CA (human) [16]): 8900 nM
SMILES: c1ccc(CCNc2nc(-c3ccc4cc[nH]c4c3)cc(N3CCOCC3)n2)nc1
GI50 (PIK3CA (human) [15]): 3600 nM

inhibition (EGFR [5]): 0
SMILES: CNC(=O)[C@H](CCCCN)NC(=O)[C@H](CCCCN)NC(=O)[C@@H]1CCCN1C(=O)[C@H](CSCCOCCOCCn1cc(C2=C(c3c[nH]c4ccccc34)C(=O)NC2=O)c2ccccc21)NC(C)=O (Ac-C(X1)PKK-NHMe)

IC50 (EGFR (human) [4]): 130000 nM
SMILES: Oc1ccc(-c2nc3ccc(O)cc3s2)cc1

IC50 (PIK3CA (human) [17]): > 20000 nM
IC50 (PIK3CA (human) [18]): > 20000 nM
SMILES: Cc1ccc([N+](=O)[O-])cc1S(=O)(=O)N(C)N=Cc1cnn2ccc(O)cc12

IC50 (EGFR (murine)): 20000 nM
SMILES: O=C1Nc2ccccc2C1=Cc1ccc(N2CCOCC2)cc1

IC50 (MAPK14 (Drosophila)): 56 nM
SMILES: Cc1ccccc1-c1nc(N(C(N)=O)c2c(Cl)cccc2Cl)ccc1CO

IC50 (EGFR (human) [19]): 104 nM
SMILES: C=CC(=O)N1CCC[C@H](n2cnc3c(N)nc(Nc4ccc(OCCOC)cc4)nc32)C1

IC50 (PIK3CA (human) [16]): 6200 nM
SMILES: CS(=O)(=O)Nc1cccc(-c2cc(N3CCOCC3)nc(OCc3ccccn3)n2)c1
GI50 (PIK3CA (human) [15]): 13500 nM

IC50 (MAPK14 (human) [9]): 2000 nM
SMILES: Cc1ccc(NC(=O)c2ccnc(N3CCOCC3)c2)cc1-n1cnc2ccc(N(C)CCCN(C)C)cc2c1=O

IC50 (EGFR (human) [20]): > 200000 nM
IC50 (EGFR (human) [21]): > 200000 nM
SMILES: Cc1ccccc1Cc1cc2c(Nc3ccc(Cl)cc3F)nc(N)nc2[nH]1

IC50 (EGFR (human) [8]): 24 nM
SMILES: Cc1ncnc(Nc2ccc(OCc3cccc(F)c3)c(Cl)c2)c1-c1ccc(CNC(C)C)cc1

SMILES: COC(=O)c1ccccc1Sc1ccc2c(-c3c(Cl)cccc3Cl)c(=O)ncn2n1
IC50 (MAPK14 (human) [22]): 370 nM

IC50 (EGFR (human) [23]): 128 nM
SMILES: C=C(CN1CCOCC1)C(=O)Nc1ccc2ncnc(Nc3cccc(Br)c3)c2c1

From the Kinase Knowledgebase extract (Sharma et al. 2016)
